We go through 13 compounds from ChEMBL document CHEMBL4334496, “Identification of a Unique Resorcylic Acid Lactone Derivative That Targets Both Lymphangiogenesis and Angiogenesis” (J Med Chem, 2019).

Activity calls are given as the source filed them. The calls are words filed in the database; no cut-off is given here. Some results are limits rather than exact numbers.

The IC50 is the concentration that gives 50% inhibition. A word on the GI50: it is the concentration at which growth is held to half of that of the control. Read a high GI50 as less potent growth inhibition.

Data set [1] concerns the target T1, Vascular endothelial growth factor receptor 2 (Homo sapiens, UniProt P35968).
Description: Inhibition of human VEGFR2 using poly[Glu:Tyr] (4:1) substrate and [gamma-33P]-ATP by radiometric biochemical kinase assay
For data set [2], the target named is T2, Vascular endothelial growth factor receptor 3 (Homo sapiens, UniProt P35916).
T2 sequence (P35916 whole entry): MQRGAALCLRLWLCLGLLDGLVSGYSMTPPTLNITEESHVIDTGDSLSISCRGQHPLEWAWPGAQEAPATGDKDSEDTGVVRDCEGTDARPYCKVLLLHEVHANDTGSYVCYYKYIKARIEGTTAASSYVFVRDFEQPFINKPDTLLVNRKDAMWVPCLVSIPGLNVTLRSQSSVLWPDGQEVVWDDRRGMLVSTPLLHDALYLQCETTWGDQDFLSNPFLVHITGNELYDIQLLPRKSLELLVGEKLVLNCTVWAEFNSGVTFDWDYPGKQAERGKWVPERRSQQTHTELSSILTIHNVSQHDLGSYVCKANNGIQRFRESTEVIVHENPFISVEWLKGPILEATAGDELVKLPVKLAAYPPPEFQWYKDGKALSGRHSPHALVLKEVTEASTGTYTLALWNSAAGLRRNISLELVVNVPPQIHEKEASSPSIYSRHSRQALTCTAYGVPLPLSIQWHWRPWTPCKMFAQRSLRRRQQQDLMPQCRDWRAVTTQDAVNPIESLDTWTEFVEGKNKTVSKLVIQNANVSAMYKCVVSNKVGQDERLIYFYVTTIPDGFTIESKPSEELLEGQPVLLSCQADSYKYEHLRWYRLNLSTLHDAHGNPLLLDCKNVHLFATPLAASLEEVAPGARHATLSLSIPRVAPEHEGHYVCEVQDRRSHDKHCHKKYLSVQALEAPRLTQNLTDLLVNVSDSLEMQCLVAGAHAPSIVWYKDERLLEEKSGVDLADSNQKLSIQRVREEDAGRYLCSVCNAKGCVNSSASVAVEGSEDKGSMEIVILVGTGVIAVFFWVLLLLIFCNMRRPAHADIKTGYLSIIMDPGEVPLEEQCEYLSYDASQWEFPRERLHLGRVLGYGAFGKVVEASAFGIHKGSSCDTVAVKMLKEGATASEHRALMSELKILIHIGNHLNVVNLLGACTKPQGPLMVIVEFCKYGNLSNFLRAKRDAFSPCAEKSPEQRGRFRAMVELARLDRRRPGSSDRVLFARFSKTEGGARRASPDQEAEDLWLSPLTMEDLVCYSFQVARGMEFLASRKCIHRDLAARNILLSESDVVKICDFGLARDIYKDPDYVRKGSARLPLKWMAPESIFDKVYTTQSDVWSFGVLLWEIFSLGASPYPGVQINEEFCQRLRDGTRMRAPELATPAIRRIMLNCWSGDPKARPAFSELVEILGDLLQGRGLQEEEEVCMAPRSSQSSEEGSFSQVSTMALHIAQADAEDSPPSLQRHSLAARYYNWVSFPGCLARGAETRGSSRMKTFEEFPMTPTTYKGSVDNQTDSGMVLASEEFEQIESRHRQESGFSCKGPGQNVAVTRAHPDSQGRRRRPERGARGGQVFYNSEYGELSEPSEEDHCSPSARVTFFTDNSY
Description: Inhibition of human VEGFR3 using poly[Glu:Tyr] (4:1) substrate and [gamma-33P]-ATP by radiometric biochemical kinase assay
Data set [3] deals with T1, Vascular endothelial growth factor receptor 2. This is another data set of the same source.
Description: Inhibition of TEL-fused VEGFR2 (unknown origin) expressed in mouse BA/F3 cells assessed as inhibition of cell growth incubated for 72 hrs by Cell-titer-Glo assay
Data set [4] deals with T2, Vascular endothelial growth factor receptor 3. The source holds these as a separate data set.
Description: Inhibition of TEL-fused VEGFR3 (unknown origin) expressed in mouse BA/F3 cells assessed as inhibition of cell growth incubated for 72 hrs by Cell-titer-Glo assay
Data set [5] can be described thus: in vitro. To be noted: mouse, BA/F3 cells.
Description: Growth inhibition of mouse BA/F3 cells assessed as inhibition of cell growth incubated for 72 hrs by Cell-titer-Glo assay
Data set [6] addresses T3, Receptor-type tyrosine-protein kinase FLT3 (Homo sapiens, UniProt P36888).
T3 sequence (P36888 whole entry): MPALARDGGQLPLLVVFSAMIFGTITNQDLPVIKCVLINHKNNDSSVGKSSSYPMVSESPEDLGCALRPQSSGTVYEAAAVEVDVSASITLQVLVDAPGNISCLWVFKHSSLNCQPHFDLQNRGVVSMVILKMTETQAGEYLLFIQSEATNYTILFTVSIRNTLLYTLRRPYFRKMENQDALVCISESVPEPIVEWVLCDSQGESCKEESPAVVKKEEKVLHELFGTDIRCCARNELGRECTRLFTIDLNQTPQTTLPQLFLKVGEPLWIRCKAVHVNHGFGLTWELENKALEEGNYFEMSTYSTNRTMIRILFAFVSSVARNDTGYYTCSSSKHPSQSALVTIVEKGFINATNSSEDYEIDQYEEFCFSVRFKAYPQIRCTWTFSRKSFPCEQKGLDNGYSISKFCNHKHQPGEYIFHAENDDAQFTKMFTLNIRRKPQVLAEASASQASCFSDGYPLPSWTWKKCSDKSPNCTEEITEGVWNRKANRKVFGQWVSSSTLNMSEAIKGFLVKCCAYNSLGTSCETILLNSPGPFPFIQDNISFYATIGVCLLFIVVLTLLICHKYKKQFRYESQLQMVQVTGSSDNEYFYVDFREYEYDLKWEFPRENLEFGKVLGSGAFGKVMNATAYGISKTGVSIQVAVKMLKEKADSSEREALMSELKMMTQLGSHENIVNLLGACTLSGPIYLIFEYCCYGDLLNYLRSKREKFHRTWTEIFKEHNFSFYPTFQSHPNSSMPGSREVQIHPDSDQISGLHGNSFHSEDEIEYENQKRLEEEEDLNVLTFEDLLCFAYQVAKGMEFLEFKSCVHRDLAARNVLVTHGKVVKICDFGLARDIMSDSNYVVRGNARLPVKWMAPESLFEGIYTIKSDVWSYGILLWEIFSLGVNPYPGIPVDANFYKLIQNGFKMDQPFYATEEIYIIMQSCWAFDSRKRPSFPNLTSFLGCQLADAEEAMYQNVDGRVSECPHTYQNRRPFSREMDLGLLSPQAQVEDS

Data set [7] has as its target Receptor-type tyrosine-protein kinase FLT3 (Homo sapiens) (UniProt P36888).
Description: Inhibition of TEL-fused FLT3 (unknown origin) expressed in mouse BA/F3 cells assessed as inhibition of cell growth incubated for 72 hrs by Cell-titer-Glo assay
In data set [8] the target is T4, Vascular endothelial growth factor receptor 1 (Homo sapiens, UniProt P17948). As to the kind of experiment: Inhibition of human VEGFR1 using poly[Glu:Tyr] (4:1) substrate and [gamma-33P]-ATP by radiometric biochemical kinase assay.
T4 sequence (P17948 whole entry): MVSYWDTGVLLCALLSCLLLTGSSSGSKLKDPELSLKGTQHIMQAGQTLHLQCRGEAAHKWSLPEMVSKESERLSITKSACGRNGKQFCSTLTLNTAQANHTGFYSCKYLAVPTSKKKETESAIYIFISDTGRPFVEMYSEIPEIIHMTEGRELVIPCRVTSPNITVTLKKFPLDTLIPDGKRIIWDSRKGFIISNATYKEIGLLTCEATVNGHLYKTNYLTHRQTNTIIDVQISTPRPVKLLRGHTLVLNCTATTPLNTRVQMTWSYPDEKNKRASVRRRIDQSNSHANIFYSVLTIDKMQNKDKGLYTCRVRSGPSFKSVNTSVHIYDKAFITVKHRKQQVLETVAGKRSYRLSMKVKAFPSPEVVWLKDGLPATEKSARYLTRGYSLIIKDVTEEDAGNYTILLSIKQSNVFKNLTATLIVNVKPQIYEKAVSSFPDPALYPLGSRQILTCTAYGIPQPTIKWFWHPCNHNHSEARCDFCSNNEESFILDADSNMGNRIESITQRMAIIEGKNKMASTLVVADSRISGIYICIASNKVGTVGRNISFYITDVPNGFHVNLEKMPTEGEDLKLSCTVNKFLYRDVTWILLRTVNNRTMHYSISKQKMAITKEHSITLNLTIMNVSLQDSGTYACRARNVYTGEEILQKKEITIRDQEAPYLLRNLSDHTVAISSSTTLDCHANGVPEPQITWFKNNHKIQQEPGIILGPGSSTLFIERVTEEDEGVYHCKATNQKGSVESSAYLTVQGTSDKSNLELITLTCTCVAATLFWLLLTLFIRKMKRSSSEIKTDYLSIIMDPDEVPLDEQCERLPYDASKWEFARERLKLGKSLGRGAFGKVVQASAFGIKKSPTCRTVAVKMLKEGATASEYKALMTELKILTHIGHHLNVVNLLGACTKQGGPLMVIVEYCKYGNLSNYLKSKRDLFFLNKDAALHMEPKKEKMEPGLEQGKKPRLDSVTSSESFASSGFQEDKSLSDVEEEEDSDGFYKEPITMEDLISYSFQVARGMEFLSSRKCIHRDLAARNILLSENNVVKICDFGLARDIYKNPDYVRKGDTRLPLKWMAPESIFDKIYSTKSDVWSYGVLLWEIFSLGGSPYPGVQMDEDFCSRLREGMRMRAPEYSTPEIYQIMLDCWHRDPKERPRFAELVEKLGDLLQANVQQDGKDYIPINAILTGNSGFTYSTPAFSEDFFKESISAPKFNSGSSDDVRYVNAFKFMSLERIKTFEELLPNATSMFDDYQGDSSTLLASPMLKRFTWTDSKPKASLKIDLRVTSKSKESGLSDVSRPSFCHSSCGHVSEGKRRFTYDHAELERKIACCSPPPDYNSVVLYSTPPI
The target in data set [9] is T4, Vascular endothelial growth factor receptor 1. The experiment in a line: Inhibition of human VEGFR1 assessed as enzyme residual activity at 10 uM using poly[Glu:Tyr] (4:1) substrate and [gamma-33P]-ATP by radiometric biochemical kinase assay relative to control.
Data set [10] deals with c-Kit (Mast/stem cell growth factor receptor Kit) (Homo sapiens, UniProt P10721). As to the kind of experiment: Inhibition of human c-Kit assessed as enzyme residual activity at 10 uM using poly[Glu:Tyr] (4:1) substrate and [gamma-33P]-ATP by radiometric biochemical kinase assay relative to control. To be noted: probe poly[Glu:Tyr] (4:1), read-out: Activity.
Sequence of c-Kit (Mast/stem cell growth factor receptor Kit) (P10721 whole entry): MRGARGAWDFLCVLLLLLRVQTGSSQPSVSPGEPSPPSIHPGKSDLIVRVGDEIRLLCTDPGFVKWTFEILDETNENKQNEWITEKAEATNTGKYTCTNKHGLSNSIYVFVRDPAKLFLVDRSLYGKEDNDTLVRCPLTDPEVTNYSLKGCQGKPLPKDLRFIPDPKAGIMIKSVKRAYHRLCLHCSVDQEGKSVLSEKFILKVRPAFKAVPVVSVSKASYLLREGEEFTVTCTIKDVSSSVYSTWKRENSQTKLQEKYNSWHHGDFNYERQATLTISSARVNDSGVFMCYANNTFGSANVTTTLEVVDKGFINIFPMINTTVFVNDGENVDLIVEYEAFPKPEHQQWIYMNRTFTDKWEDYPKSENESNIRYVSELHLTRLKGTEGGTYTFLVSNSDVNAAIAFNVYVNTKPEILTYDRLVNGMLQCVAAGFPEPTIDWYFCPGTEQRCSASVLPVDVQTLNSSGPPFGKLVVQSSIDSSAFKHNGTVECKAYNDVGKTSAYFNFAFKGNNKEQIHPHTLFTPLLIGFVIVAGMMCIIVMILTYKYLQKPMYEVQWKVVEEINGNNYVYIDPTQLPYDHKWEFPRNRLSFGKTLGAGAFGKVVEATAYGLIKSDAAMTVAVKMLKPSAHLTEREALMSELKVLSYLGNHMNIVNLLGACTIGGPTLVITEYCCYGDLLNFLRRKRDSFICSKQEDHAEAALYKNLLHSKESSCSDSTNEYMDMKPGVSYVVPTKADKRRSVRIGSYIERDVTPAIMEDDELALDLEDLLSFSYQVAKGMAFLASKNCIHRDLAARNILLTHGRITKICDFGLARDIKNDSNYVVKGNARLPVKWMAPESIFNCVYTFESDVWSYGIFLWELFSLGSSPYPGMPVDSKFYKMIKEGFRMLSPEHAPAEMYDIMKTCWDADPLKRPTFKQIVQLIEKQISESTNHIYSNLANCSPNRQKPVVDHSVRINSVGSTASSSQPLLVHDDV
The species entered for data set [11] is Homo sapiens. The experiment in a line: Anti-lymphangiogenic activity in HDLEC assessed as reduction in human A375 cells-induced lymphatic sprouting at 1 to 10 uM incubated for 4 days by Hoechst 33342 and phalloidin staining based microfluidic platform assay relative to control. The data set is classed as functional, cell-based.
The species named for data set [12] is Homo sapiens. The experiment in a line: Anti-lymphangiogenic activity in HDLEC assessed as reduction in human MIAPaCa-2 cells-induced lymphatic sprouting at 1 to 10 uM incubated for 4 days by Hoechst 33342 and phalloidin staining based microfluidic platform assay relative to control. The data set is classed as functional, cell-based.
Data set [13] relates to HUVEC. The experiment in a line: Anti-angiogenesis activity in HUVEC assessed as inhibition of VEGF-A-induced cell migration at 0.1 uM incubated for 12 hrs by wound healing assay. The data set is classed as functional, cell-based. Conditions: Homo sapiens.
Data set [14] concerns HUVEC. The experiment in a line: Anti-angiogenesis activity in HUVEC assessed as inhibition of VEGF-A-induced tube formation at 0.1 uM incubated for 6 hrs by tube formation assay. To be noted: Homo sapiens. The data set is classed as functional, cell-based.
The subject of data set [15] is Mus musculus. As to the kind of experiment: Anti-lymphangiogenic activity in C57BL/6 mouse assessed as suppression of suture-induced corneal lymphangiogenesis at 200 nM administered topically every 12 hrs for 7 days by immunohistochemical analysis. The data set is classed as functional, organism-based.
The test system of data set [16] is Mus musculus. The experiment in a line: Anti-angiogenesis activity in C57BL/6 mouse assessed as suppression of suture-induced corneal angiogenesis at 200 nM administered topically every 12 hrs for 7 days by immunohistochemical analysis. The data set is classed as functional, organism-based.
The nature of data set [17]: Toxicity in C57BL/6 mouse assessed as induction of clinically detectable corneal-epitheliopathy at 200 nM administered topically every 12 hrs for 7 days by immunohistochemical analysis. Conditions: in vivo, topical_or_ocular, 0.2 µM.
Data set [18] deals with HUVEC. As to the kind of experiment: Anti-angiogenesis activity in truncated-FOSB transfected HUVEC cells model of pseudomyogenic-hemangioendothelioma assessed as inhibition of tube formation. The data set is classed as functional, cell-based. Conditions: Homo sapiens.
Data set [19] concerns HUVEC. The experiment in a line: Anti-angiogenesis activity in truncated-FOSB transfected HUVEC cells model of pseudomyogenic-hemangioendothelioma assessed as inhibition of cell proliferation. The data set is classed as functional, cell-based. To be noted: Homo sapiens.
The target in data set [20] is Mast/stem cell growth factor receptor Kit (Homo sapiens, UniProt P10721). As to the kind of experiment: Inhibition of c-Kit phosphorylation in human TF1 cells assessed as at 0.1 to 0.3 uM incubated for 2 hrs by Western blot analysis. The data set is classed as cell-based. In general terms: In western blotting, separated proteins are transferred to a membrane and probed.
Sequence of Mast/stem cell growth factor receptor Kit (P10721 whole entry): as above

The subject of data set [21] is MOLM-14. As to the kind of experiment: Induction of apoptosis in human MOLM14 cells at 0.1 uM incubated for 24 hrs by propidium iodide and annexin-V staining based flow cytometry. The data set is classed as functional, cell-based. (In general: Flow cytometry measures light scatter and fluorescence of single cells or particles in a stream.)
The subject of data set [22] is MV4-11. The experiment in a line: Induction of apoptosis in human MV4-11 cells at 0.1 uM incubated for 24 hrs by propidium iodide and annexin-V staining based flow cytometry. The format is functional, cell-based.
In data set [23] the test system is MOLM-14. As to the kind of experiment: Induction of apoptosis in human MOLM14 cells assessed as induction of PARP cleavage at 0.1 to 1 uM incubated for 24 hrs by Western blot analysis. The format is functional, cell-based.
In data set [24] the test system is MOLM-14. As to the kind of experiment: Induction of apoptosis in human MOLM14 cells assessed as induction of caspase-3 cleavage at 0.1 to 1 uM incubated for 24 hrs by Western blot analysis. The format is functional, cell-based.
Data set [25] has as its system MV4-11. As to the kind of experiment: Induction of apoptosis in human MV4-11 cells assessed as induction of PARP cleavage at 0.1 to 1 uM incubated for 24 hrs by Western blot analysis. The data set is classed as functional, cell-based.
In data set [26] the test system is MV4-11. As to the kind of experiment: Induction of apoptosis in human MV4-11 cells assessed as induction of caspase-3 cleavage at 0.1 to 1 uM incubated for 24 hrs by Western blot analysis. The format is functional, cell-based.
The species named for data set [27] is Homo sapiens. The experiment in a line: Anti-lymphangiogenic activity in HDLEC assessed as reduction in growth factor cocktail-induced lymphatic sprouting at 10 uM incubated for 4 days by Hoechst 33342 and phalloidin staining based microfluidic platform assay relative to control. The data set is classed as functional.
Data set [28] relates to HUVEC. The experiment in a line: Anti-angiogenesis activity in truncated-FOSB transfected HUVEC cells model of pseudomyogenic-hemangioendothelioma assessed as inhibition of tube formation up to 5 uM. To be noted: Homo sapiens. The data set is classed as functional, cell-based.

T1 sequence (P35968 whole entry): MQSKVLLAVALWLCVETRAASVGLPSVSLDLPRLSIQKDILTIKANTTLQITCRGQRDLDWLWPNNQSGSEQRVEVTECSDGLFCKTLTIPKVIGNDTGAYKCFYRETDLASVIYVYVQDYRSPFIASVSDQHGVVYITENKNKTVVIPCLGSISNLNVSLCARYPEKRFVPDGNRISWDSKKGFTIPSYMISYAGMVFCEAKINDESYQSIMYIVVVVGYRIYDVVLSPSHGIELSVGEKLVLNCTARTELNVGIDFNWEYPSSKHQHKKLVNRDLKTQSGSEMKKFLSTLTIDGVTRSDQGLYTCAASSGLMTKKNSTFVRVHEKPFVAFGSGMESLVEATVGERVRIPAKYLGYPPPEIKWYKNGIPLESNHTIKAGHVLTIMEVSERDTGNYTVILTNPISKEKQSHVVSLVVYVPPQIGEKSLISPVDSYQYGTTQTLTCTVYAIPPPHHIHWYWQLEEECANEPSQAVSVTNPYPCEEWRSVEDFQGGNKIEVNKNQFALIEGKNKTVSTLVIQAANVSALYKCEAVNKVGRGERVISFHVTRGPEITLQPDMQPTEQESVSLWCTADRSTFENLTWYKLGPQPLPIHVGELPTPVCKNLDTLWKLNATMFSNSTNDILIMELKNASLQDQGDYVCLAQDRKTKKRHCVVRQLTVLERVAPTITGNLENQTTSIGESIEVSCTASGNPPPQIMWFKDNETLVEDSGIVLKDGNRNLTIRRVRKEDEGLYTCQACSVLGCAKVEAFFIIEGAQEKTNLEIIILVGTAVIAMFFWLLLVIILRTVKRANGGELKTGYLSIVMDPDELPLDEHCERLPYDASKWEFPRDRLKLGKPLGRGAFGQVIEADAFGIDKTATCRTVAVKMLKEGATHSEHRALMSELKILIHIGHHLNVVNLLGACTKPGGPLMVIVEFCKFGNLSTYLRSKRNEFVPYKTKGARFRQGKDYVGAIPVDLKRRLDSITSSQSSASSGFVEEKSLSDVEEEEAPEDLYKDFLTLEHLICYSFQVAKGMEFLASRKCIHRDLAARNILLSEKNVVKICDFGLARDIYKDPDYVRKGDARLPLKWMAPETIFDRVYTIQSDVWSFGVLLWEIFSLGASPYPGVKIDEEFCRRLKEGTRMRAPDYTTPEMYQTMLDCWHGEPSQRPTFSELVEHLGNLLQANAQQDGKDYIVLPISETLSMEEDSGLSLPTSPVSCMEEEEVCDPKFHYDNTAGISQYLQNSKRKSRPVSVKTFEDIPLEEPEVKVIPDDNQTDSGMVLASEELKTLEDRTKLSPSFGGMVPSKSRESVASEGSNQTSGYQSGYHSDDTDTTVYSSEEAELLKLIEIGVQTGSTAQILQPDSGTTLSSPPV

For `C=C1/C=C\C[C@H](C)OC(=O)c2c(O)cc(OC)cc2-c2cccc(c2)[C@@H](O)[C@@H]1O`, the IC50 in [1] and in [2] was more than 10000 nM throughout. Further, the figures for the GI50 in data set [3] and in data set [4] were more than 25 µM and more than 25000 nM, respectively. Further, in [5], the GI50 at 72 h was more than 25 µM.
In [5], `COc1cc(O)c2c(c1)-c1cccc(c1)[C@H](O)[C@@H](O)C(=O)/C=C\C[C@H](C)OC2=O` showed a GI50 at 72 h of 17 µM. That is a double-digit micromolar value.
The same measure, in the same setting: the figure for `COc1cc(O)c2c(c1)-c1cccc(c1)[C@@H](O)[C@H](O)C(=O)C/C=C/[C@H](C)OC2=O` is 11 µM.
On the same count and under the same terms, in the case of `COc1cc(O)c2c(c1)-c1cccc(c1)[C@@H](O)[C@H](O)[C@H](O)/C=C\C[C@H](C)OC2=O` it was more than 25 µM; in that of `COc1cc(O)c2c(c1)-c1cccc(c1)[C@H](O)[C@@H](O)C(=O)CCC[C@H](C)OC2=O`, more than 25 µM; in that of `COc1cc(O)c2c(c1)-c1cccc(c1)[C@@H](O)[C@H](O)C(=O)CCC[C@H](C)OC2=O`, more than 25 µM.
Regarding `COc1cc(O)c2c(c1)CCC[C@H](O)[C@H](O)C(=O)/C=C\C[C@H](C)OC2=O`, the values for the IC50 in data set [6], in data set [1] and in data set [2] were 1.8 nM, 2.9 nM and 0.73 nM, respectively. The GI50 worked out at 0.14 µM in data set [3], 50 nM in [4] and 0.27 µM in data set [7]. The compound further registered a GI50 at 72 h in [5] of 1.7 µM.
For the compound `COc1cc(O)c2c(c1)-c1cccc(c1)[C@H](O)[C@H](O)C(=O)CCC[C@H](C)OC2=O`, the GI50 at 72 h in data set [5] is more than 25 µM.
On the same count and under the same terms, in the case of `COc1cc(O)c2c(c1)-c1cccc(c1)CCC(=O)/C=C\C[C@H](C)OC2=O` it was more than 25 µM.
Consider `COc1cc(O)c2c(c1)-c1cccc(c1)[C@H](O)[C@H](O)C(=O)/C=C\C[C@H](C)OC2=O`, for which the GI50 at 72 h in [5] is 12 µM.
As to `COc1cc(O)c2c(c1)-c1cccc(c1)[C@@H](O)[C@H](O)C(=O)/C=C\C[C@H](C)OC2=O`, 845 nM corresponded to half-maximal inhibition in data set [8] (IC50). Further, the Activity in [9] was 36.6%; in [17], “Non-Toxic”; in data set [18], “Dose-dependent effect”; in [19] it was “Dose-dependent effect”. Further, the activity at 10 µM in [10] stood at 82.2%. In addition, the Activity result in data set [11], in [12], in data set [15], in data set [16], in data set [21] and in [22] was “Active” each time. Moreover, the Activity entry in data set [23], in data set [24], in [25] and in data set [26] was “Active” throughout. Besides, the inhibition result in data set [13] and in [14] was “Active” throughout. Further, the “inhibition (INH)” value in [20] is listed as “Not Active”. The compound further yielded a GI50 at 72 h in data set [5] of 10 µM.
Regarding `CCn1c(N)c(C(=O)NC)c(=O)c2ccc(C#C[C@@](C)(O)COC)nc21`, the values for the IC50 in data set [6], in data set [1] and in [2] were 290 nM, 67 nM and 1.2 nM, respectively. In addition, in data set [27], the fold change (FC) is 2. Moreover, the inhibition result in [13] and in [14] was “inactive” throughout. Further, the Activity entry in data set [15] is “Active”. In data set [17], the Activity result is reported as “Non-Toxic”. Moreover, in data set [28], the Activity entry was “inactive”. Further, the GI50 in [3] was 4.6 µM; in [4], 59 nM; in data set [7], 18 µM. This compound also came in with a GI50 at 72 h in data set [5] of more than 25 µM.
For the compound `COc1cc(O)c2c(c1)-c1cccc(c1)[C@@H](O)[C@H](O)[C@@H](N)/C=C\C[C@H](C)OC2=O`, the IC50 in [1] and in data set [2] was more than 10000 nM in each case. Besides, the figures for the GI50 in [3], in data set [4] and in data set [7] were more than 25 µM, more than 25000 nM and more than 25 µM, respectively. For the same compound, the GI50 at 72 h in data set [5] is more than 25 µM.
